# ChEMBL document CHEMBL1152339, “Use of the in vivo hollow fiber assay in natural products anticancer drug discovery” (J Nat Prod, 2009)
# Legend:
# Assay type in all cases: functional
# LNCaP [1] = assay: Growth inhibition of human LNCAP cells xenografted in NCr nu/nu mouse at 6.25 to 25 mg/kg, ip once daily administered from day 3 to 6 after implantation measured on day 7 by MTT-based hollow-fiber test; settings: route intraperitoneal
# KB [2] = assay: Growth inhibition of human KB cells xenografted in NCr nu/nu mouse at 6.25 to 25 mg/kg, sc once daily administered from day 3 to 6 after implantation measured on day 7 by MTT-based hollow-fiber test; settings: route subcutaneous
# Col2 [3] = assay: Growth inhibition of human Col2 cells xenografted in ip dosed NCr nu/nu mouse administered once daily from day 3 to 6 after implantation measured on day 7 by MTT-based hollow-fiber test
# LNCaP [4] = assay: Growth inhibition of human LNCAP cells xenografted in ip dosed NCr nu/nu mouse administered once daily from day 3 to 6 after implantation measured on day 7 by MTT-based hollow-fiber test
# Col2 [5] = assay: Growth inhibition of human Col2 cells xenografted in NCr nu/nu mouse at 6.25 to 25 mg/kg, sc once daily administered from day 3 to 6 after implantation measured on day 7 by MTT-based hollow-fiber test; settings: route subcutaneous
# LNCaP [6] = assay: Growth inhibition of human LNCAP cells xenografted in NCr nu/nu mouse at 6.25 to 25 mg/kg, sc once daily administered from day 3 to 6 after implantation measured on day 7 by MTT-based hollow-fiber test; settings: route subcutaneous
# KB [7] = assay: Growth inhibition of human KB cells xenografted in NCr nu/nu mouse at 6.25 to 25 mg/kg, ip once daily administered from day 3 to 6 after implantation measured on day 7 by MTT-based hollow-fiber test; settings: route intraperitoneal
# Col2 [8] = assay: Growth inhibition of human Col2 cells xenografted in NCr nu/nu mouse at 6.25 to 25 mg/kg, ip once daily administered from day 3 to 6 after implantation measured on day 7 by MTT-based hollow-fiber test; settings: route intraperitoneal
# SW626 [9] = assay: Growth inhibition of human SW626 cells xenografted in NCr nu/nu mouse at 3.75 to 30 mg/kg, sc once daily administered from day 3 to 6 after implantation measured on day 7 by MTT-based hollow-fiber test; settings: dose mg/kg 3-6; route subcutaneous
# SW626 [10] = assay: Growth inhibition of human SW626 cells xenografted in ip dosed NCr nu/nu mouse administered once daily from day 3 to 6 after implantation measured on day 7 by MTT-based hollow-fiber test
# KB [11] = assay: Growth inhibition of human KB cells xenografted in NCr nu/nu mouse at 3.75 to 30 mg/kg, sc once daily administered from day 3 to 6 after implantation measured on day 7 by MTT-based hollow-fiber test; settings: route subcutaneous
# SW626 [12] = assay: Growth inhibition of human SW626 cells xenografted in NCr nu/nu mouse at 3.75 to 30 mg/kg, ip once daily administered from day 3 to 6 after implantation measured on day 7 by MTT-based hollow-fiber test; settings: dose mg/kg 3-6; route intraperitoneal
# KB [13] = assay: Growth inhibition of human KB cells xenografted in NCr nu/nu mouse at 3.75 to 30 mg/kg, ip once daily administered from day 3 to 6 after implantation measured on day 7 by MTT-based hollow-fiber test; settings: route intraperitoneal
SMILES,growth inhibition (GI) (LNCaP [1]),growth inhibition (GI) (KB [2]),ED50 (Col2 [3]),ED50 (LNCaP [4]),growth inhibition (GI) (Col2 [5]),growth inhibition (GI) (LNCaP [6]),growth inhibition (GI) (KB [7]),growth inhibition (GI) (Col2 [8]),growth inhibition (GI) (SW626 [9]),ED50 (SW626 [10]),growth inhibition (GI) (KB [11]),growth inhibition (GI) (SW626 [12]),growth inhibition (GI) (KB [13])
CC(=O)O[C@H]1O[C@H]([C@@H]2c3cccc(O)c3C(=O)c3c(O)cc(C)cc32)[C@H](O)[C@@H](OC(=O)C=C(C)C)[C@H]1O [ALVARADOIN G],52%,13%,1300 nM,290 nM,0%,24%,79%,84%,–,–,–,–,–
CC(=O)O[C@H]1C(=O)[C@@]2(C)[C@H]([C@H](OC(=O)c3ccccc3)[C@]3(O)C[C@H](OC(=O)[C@H](O)[C@@H](NC(=O)c4ccccc4)c4ccccc4)C(C)=C1C3(C)C)[C@]1(OC(C)=O)CO[C@@H]1C[C@@H]2O [PACLITAXEL],–,–,–,–,–,–,–,–,0%,0.012 nM,20%,98%,70%
